Measured values published in PMC8393474, “The Interaction of Hemin, a Porphyrin Derivative, with the Purified Rat Brain 2-Oxoglutarate Carrier” (Biomolecules, 2021).

Target: T1, 2-oxoglutarate carrier (OGC) (Rattus norvegicus, UniProt P97700)
T1 construct: gene Slc25a11; native carrier purified from rat brain mitochondria, reconstituted into proteoliposomes
T1 sequence (P97700 2-314): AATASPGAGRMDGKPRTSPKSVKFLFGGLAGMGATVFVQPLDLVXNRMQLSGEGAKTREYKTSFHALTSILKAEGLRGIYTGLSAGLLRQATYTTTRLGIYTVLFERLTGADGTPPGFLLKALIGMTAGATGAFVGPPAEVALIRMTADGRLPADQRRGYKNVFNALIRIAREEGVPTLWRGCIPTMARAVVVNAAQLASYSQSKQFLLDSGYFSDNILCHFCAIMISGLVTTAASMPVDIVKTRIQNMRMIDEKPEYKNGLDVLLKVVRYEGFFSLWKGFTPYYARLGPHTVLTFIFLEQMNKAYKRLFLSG
Experiment: inhibition of […] 2-oxoglutarate or […] malate uptake in proteoliposomes reconstituted with purified OGC; Lineweaver-Burk and Dixon plots
Assay type: biochemical

C=CC1=C(C)C2=Cc3c(C=C)c(C)c4[n]3[Fe]([Cl])[n]3c(c(C)c(CCC(=O)O)c3=CC3=NC(=C4)C(C)=C3CCC(=O)O)=CC1=N2 [hemin]
IC50: 1580 ± 220 nM
